≈ marks a conversion by molar mass, not a printed value. A value given as a limit tells only on which side of the number the result lay.

The results in this text go back to PMC12856912, “Structure-Guided Semisynthesis of Blasticidin S–Amicetin Chimeras as Selective Ribosome Inhibitors” (Journal of the American Chemical Society, 2026).

Series [1] deals with Vancomycin resistant Enterococcus faecium NR-31909 (VRE). The experiment in a line: Antibacterial MIC assay, serial dilution. The class given is cell-based. As to conditions: for Selectivity index (CC50/MIC) VRE NR-31909: CC50 Vero cells / MIC; for MIC: Enterococcus faecium, VRE, 24 h, read-out: MIC Vancomycin resistant Enterococcus faecium NR-31909 (VRE). The procedure:
(§1) Media and solutions were autoclaved or sterile filtered prior to use and mani pulations were carri ed out in a laminar flow hood. Antibacterial t esting was performed in polypropylene 96-well flat bottom plates. The minimal inhibitory concentration of blasticidin S (1) hydrochloride, methyl ester (3) trihydrochloride, P10 (2) tri-T FA , phenet hyl amide (4) tri -T FA , an d blastimidines M 19– 22, A, 29–32, P 37–40, and C 43–46 (salt forms as described in the te xt) were assessed against Staphylococcus aureus ΔNorA, S. aureus ATCC 6538P, methicillin-resistant S. aureus (MRSA) ATCC 43300, Enterococcus faecalis ATCC 29212, vancomycin- resistant Enterococcus, Klebsiella pneumoniae ATCC 29665, Pseudomonas aeruginosa,and Acinetobacter baumannii ATCC 17978 using serial dilutions. Doxycycline (Gold Bio) as a positive control and the vehicle as a negative control. Stock solutions of each compound were prepared at 2.56 mg/mL in 50% DMSO/water and serially diluted in 50% DMSO/water to create master plates. From the master plates, 10 μ L o f each dilution was applied to test plates using a Bravo automated liquid transfer system (Agilent).
(§2) Bacteria previously grown overnight (37 °C, 120–200 RPM), in LB broth were diluted to an OD600 of 0.05 in cation-adjusted Mueller-Hinton broth (CAMHB), grown to an OD600 of ~0.5, and diluted to an OD600 of 0.004 in CAMHB . These diluted cultures were applied to the test plates (190 μL per test well) resulting in final concentrations of the test compounds of 128–1 μg/ m L.
(§3) Growth controls (wells with inoculated media but no vehicle or test compounds) were included to assess any potential toxicity from the vehicle. Th e plates were in cubated at 37 °C for 16–18 h, except fo r VRE and E. faecalis, which w ere in cub ated at 37 °C fo r 24 h. Inh ibition was determined by measuring the optical density at 600 nm (OD60 0) with a Cytation 3 pl ate read er (BioTek). The optical density measurem ents were no rmalized to the positive and negative controls and the vehicle and growth controls were compared and found to b e indistinguishable, indicating no toxicity from […]
(§4) the vehicle used. The MIC was the lowest concentration that inhibited >90% of growth. Two biological replicates were performed in duplicate. MIC values are reported as a range from […]

Series [2] relates to Acinetobacter baumannii ATCC 17978. Put plainly: Antibacterial MIC assay, serial dilution. It counts as cell-based. As to conditions: ATCC17978, range from biological replicates. The procedure: as §1, §2, §3, §4
For series [3], the system named is Enterococcus faecalis ATCC 29212. The experiment in a line: Antibacterial MIC assay, serial dilution. As to conditions: for Selectivity index (CC50/MIC) E. faecalis 29212: CC50 Vero cells / MIC; for MIC: Enterococcus faecalis, ATCC 29112 / ATCC 29212, 24 h, read-out: MIC E. faecalis ATCC 29112. The class given is cell-based. The procedure:
as §1, §2, §3, §4

The subject of series [4] is Klebsiella pneumoniae ATCC 29665. Put plainly: Antibacterial MIC assay, serial dilution. It counts as cell-based. As to conditions: for MIC: Klebsiella pneumoniae, ATCC29665, range from biological replicates, read-out: MIC K. pneumoniae ATCC-29665. The procedure:
as §1, §2, §3, §4

In series [5] the test system is Pseudomonas aeruginosa. Put plainly: Antibacterial MIC assay, serial dilution. It counts as cell-based. As to conditions: for Selectivity index (CC50/MIC) P. aeruginosa: CC50 Vero cells / MIC; for MIC: Pseudomonas aeruginosa, range from biological replicates, read-out: MIC P. aeruginosa. The protocol:
as §1, §2, §3, §4

For series [6], the system named is Vancomycin resistant E. faecalis NR-31972 (VRE). The experiment in a line: Antibacterial MIC assay, serial dilution. It counts as cell-based, Enterococcus faecalis. As to conditions: for Selectivity index (CC50/MIC) VRE NR-31972: CC50 Vero cells / MIC; for MIC: Enterococcus faecalis, VRE, 24 h, read-out: MIC Vancomycin resistant E. faecalis NR-31972 (VRE). The procedure: as §1, §2, §3, §4

A short description of series [7]: Cytotoxicity assay (MTS/PMS). It counts as cell-based. Conditions: monkey, Vero cells (monkey kidney epithelial cells); 24 h treatment, MTS/PMS, average of three biological replicates; read-out: CC50 against Vero cells. The procedure:
The potential cytotoxic eff ect of the test compounds was investigated using Vero cells (monkey kidney epitheli al cells) following est ablished protocols.3 Briefly, Vero cells were plated into 96-well plates supplemented with Dulbecco's Modified Eagle Medium (DMEM) containing 10% fetal bovine serum (FBS). The cells were placed in a humidified 37 °C environment for incubation with 5% CO₂ for 24 h to allow proper adherence and growth. Following the incubation period, the culture medium was replaced with fresh DMEM containing serial dilutions of the test compounds, while the v ehicle alon e w as used as a negative control. The treated cells were incubated for an additional 24 h. To assess cell viability, the MTS/PMS reagent was added to each well and incubat ed for 4 h. A microplate reader (S ynergy H1, BioTek, USA) was used to m easure absorbance at 490 nm. Al l experiments wer e cond ucted usingthree biologi cal replicates .
Ta b l e S2. CC50 valuesa (µg/mL) against Vero cells […]
aValues at which the cell viability (normalized to vehicle control) was 50%. […]

The test system of series [8] is Methicillin resistant S. aureus (MRSA) USA300. The experiment in a line: Antibacterial MIC assay, serial dilution. It counts as cell-based, Staphylococcus aureus. Conditions: for Selectivity index (CC50/MIC) MRSA USA300: CC50 Vero cells / MIC; for MIC: Staphylococcus aureus, read-out: MIC Methicillin resistant S. aureus (MRSA) USA300.
In series [9] the test system is Methicillin resistant Staphylococcus epidermidis (MRSE) ATCC 35984 NRS101. Put plainly: Antibacterial MIC assay, serial dilution. It counts as cell-based. Conditions: for Selectivity index (CC50/MIC) MRSE 35984: CC50 Vero cells / MIC; for MIC: Staphylococcus epidermidis, read-out: MIC Methicillin resistant Staphylococcus epidermidis (MRSE) ATCC 35984 NRS101.
Series [10] has as its system Escherichia coli BAA-2452. The experiment in a line: Antibacterial MIC assay, serial dilution. The class given is cell-based. As to conditions: BAA2452, read-out: MIC Escherichia coli BAA-2452.
The subject of series [11] is S. aureus ΔNorA. Put plainly: Antibacterial MIC assay, serial dilution. It counts as cell-based, Staphylococcus aureus. As to conditions: for Selectivity index (CC50/MIC) S. aureus ΔNorA: CC50 Vero cells / MIC; for MIC: Staphylococcus aureus, read-out: MIC S. aureus ∆NorA. The procedure: as §1, §2, §3, §4
Series [12] concerns S. aureus ATCC 6538P. Put plainly: Antibacterial MIC assay, serial dilution. The class given is cell-based, Staphylococcus aureus. As to conditions: for Selectivity index (CC50/MIC) S. aureus 6538P: CC50 Vero cells / MIC; for MIC: Staphylococcus aureus, ATCC 6538P / ATCC 6539P, read-out: MIC S. aureus ATCC 6539P. The protocol: as §1, §2, §3, §4
Series [13] has as its system MRSA ATCC 43300. Put plainly: Antibacterial MIC assay, serial dilution. The class given is cell-based, Staphylococcus aureus. As to conditions: for Selectivity index (CC50/MIC) MRSA 43300: CC50 Vero cells / MIC; for MIC: Staphylococcus aureus, read-out: MIC MRSA ATCC 43300. The protocol:
as §1, §2, §3, §4

For orientation: MIC means the least concentration at which growth counts as inhibited. What is called CC50 is the concentration at which the toxic effect on the cells reaches its halfway point. Consider `CN(CC[C@H](N)CC(=O)N[C@H]1C=C[C@H](n2ccc(NC(=O)c3ccc(N)cc3)nc2=O)O[C@@H]1C(=O)NCCc1ccccc1)C(=N)N` [Blastimidine P2], for which the “Selectivity index (CC50/MIC) VRE NR-31909” value in series [1] is above 2.0. Moreover, the MIC in series [1] is 128 µg/mL (≈ 199 µM); in series [2], above 128 µg/mL; in series [3], 8 µg/mL (≈ 12.4 µM); in series [4] it was above 128 µg/mL; in series [5], 128 µg/mL (≈ 199 µM); in series [6] it was 16 µg/mL (≈ 24.8 µM). The MIC in [8] is 32 µg/mL (≈ 49.6 µM); in series [9], 16 µg/mL (≈ 24.8 µM); in [10] it was 128 µg/mL (≈ 199 µM); in series [11], 8 µg/mL (≈ 12.4 µM); in [12], 16 to 32 µg/mL (≈ 24.8 to 49.6 µM); in series [13], 64 µg/mL (≈ 99.3 µM). Further, the “Selectivity index (CC50/MIC) E. faecalis 29212” value in series [3] is reported as above 32. For the same molecule, the “Selectivity index (CC50/MIC) P. aeruginosa” value in [5] was above 2.0. Also, the “Selectivity index (CC50/MIC) VRE NR-31972” value in series [6] is above 16. The CC50 at 24 h in series [7] was above 256 µg/mL. In addition, the “Selectivity index (CC50/MIC) MRSA USA300” value in series [8] was above 8.0. Further, the “Selectivity index (CC50/MIC) MRSE 35984” value in series [9] is reported as above 16. Besides, the “Selectivity index (CC50/MIC) S. aureus ΔNorA” value in series [11] is given as above 32. For the same molecule, the “Selectivity index (CC50/MIC) S. aureus 6538P” value in [12] is above 12. For the same molecule, in series [13], the “Selectivity index (CC50/MIC) MRSA 43300” value was above 4.0.
For the molecule `CN(CC[C@H](N)CC(=O)N[C@H]1C=C[C@H](n2ccc(NC(=O)c3ccc(N)cc3)nc2=O)O[C@@H]1C(N)=O)C(=N)N` [Blastimidine A2], the “Selectivity index (CC50/MIC) VRE NR-31909” value in series [1] is 1.0. Besides, the MIC in [1] was 16 µg/mL (≈ 29.6 µM); in series [2], above 128 µg/mL; in series [3], 16 µg/mL (≈ 29.6 µM); in series [4], 16 µg/mL (≈ 29.6 µM); in [5] it was above 128 µg/mL; in series [6], 32 µg/mL (≈ 59.2 µM). Also, the MIC in [8] amounted to 16 µg/mL (≈ 29.6 µM); in [9], 32 µg/mL (≈ 59.2 µM); in series [10], 16 µg/mL (≈ 29.6 µM); in series [11], 32 µg/mL (≈ 59.2 µM); in series [12], 16 µg/mL (≈ 29.6 µM); in series [13], 16 µg/mL (≈ 29.6 µM). For the same molecule, the “Selectivity index (CC50/MIC) E. faecalis 29212” value in series [3] came to 1.0. Also, the “Selectivity index (CC50/MIC) K. pneumoniae” value in [4] (CC50 Vero cells / MIC) is listed as 1.0. The “Selectivity index (CC50/MIC) P. aeruginosa” value in series [5] is below 0.1. Besides, in series [6], the “Selectivity index (CC50/MIC) VRE NR-31972” value turned out to be 0.5. In addition, in series [7], the CC50 at 24 h came to 16 µg/mL (≈ 29.6 µM). Also, the “Selectivity index (CC50/MIC) MRSA USA300” value in series [8] is listed as 1.0. Moreover, in series [9], the “Selectivity index (CC50/MIC) MRSE 35984” value came to 0.5. Also, the “Selectivity index (CC50/MIC) S. aureus ΔNorA” value in series [11] is 0.5. The “Selectivity index (CC50/MIC) S. aureus 6538P” value in series [12] came out at 1.0. For the same molecule, the “Selectivity index (CC50/MIC) MRSA 43300” value in series [13] is on record as 1.0.
